± gives the expanded uncertainty stated by the source.

The conditions of this data set: Adiabatic calorimetry.

In the case of `N#CCCNc1ccccc1` [3-anilinopropanenitrile], the Triple point temperature was determined as 323.5 ± 0.1 K (Crystal 1) and 310.63 ± 0.05 K (Crystal 2).
